Source: PMC9097471, “Development of Selective Phosphatidylinositol 5-Phosphate 4-Kinase γ Inhibitors with a Non-ATP-competitive, Allosteric Binding Mode” (Journal of Medicinal Chemistry, 2022)

Columns and labels:
[1] = Caco-2 cell permeability; assay type: in vitro ADME; conditions: human; for Papp A→B at 1 h, 10 µM: Caco-2, apical-to-basolateral; for efflux ratio at 1 h, 10 µM: Caco-2 efflux ratio (B-A/A-B), read-out: ER
Experimental: Permeability: bi-directional Caco-2 cell permeability was performed by Charles River Laboratories Inc. (ADME-SOP-49). Briefly, compounds were administered at 10 µM (1% DMSO final) to the apical or basolateral side of a polarised Caco-2 cell monolayer, then incubated at 37 °C for 60 minutes before appearance on the opposite side of the monolayer was determined by mass spectrometry. The efflux ratio (ER) is calculated from the ratio of B-A […]

[2] = molecular target: T1, PI5P4Kα (Homo sapiens, UniProt P48426); assay: Adapta TR-FRET assay (Thermo Fisher); assay type: biochemical; set-up: purchased Thermo Fisher
T1 sequence (P48426 1-406): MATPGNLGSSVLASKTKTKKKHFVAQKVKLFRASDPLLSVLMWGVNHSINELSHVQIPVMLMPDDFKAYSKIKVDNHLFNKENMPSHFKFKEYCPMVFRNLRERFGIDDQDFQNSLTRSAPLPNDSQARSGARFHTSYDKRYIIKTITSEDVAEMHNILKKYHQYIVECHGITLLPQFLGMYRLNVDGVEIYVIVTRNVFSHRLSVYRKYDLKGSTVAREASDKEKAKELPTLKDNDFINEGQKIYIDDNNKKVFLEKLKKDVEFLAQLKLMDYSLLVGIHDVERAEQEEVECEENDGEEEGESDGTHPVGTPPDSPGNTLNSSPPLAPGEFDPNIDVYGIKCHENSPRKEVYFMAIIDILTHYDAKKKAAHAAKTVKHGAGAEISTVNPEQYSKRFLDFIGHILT
Experimental: Table S7. PI5P4Kα adapta assay results for compounds 1 and 40.a
Compound PI5P4Kα adapta IC50 (nM) […]
a The experiments were run by Thermo Fisher. This assay is a TR-FRET based assay using an Eu-anti-ADP antibody, the conditions are: the 2X PIP4Kα/PI(5)P mixture is prepared in 50 mM HEPES pH 7.5, 0.1% CHAPS, 1 mM EGTA, 4 mM MgCl2. The final 10 μL Kinase Reaction consists of 1.5 - 6 ng PIP4Kα and 50 μM PI(5)P in 32.5 mM HEPES pH 7.5, 0.05% CHAPS, 0.5 mM EGTA, 2 mM MgCl2. After the 1 hour Kinase Reaction incubation, 5 μL of Detection Mix is added. The Detection mix consists of EDTA (30mM), Eu-anti-ADP antibody (6 nM) and ADP tracer in TR-FRET buffer. The detection mix contains the EC60 concentration of tracer for 5-

[3] = Liver microsomal stability; assay type: in vitro ADME; conditions: liver microsomes; Human liver microsomal hepatic stability; read-out: HLM t1/2
[4] = molecular target: T2, PI5P4Kγ-WT (Homo sapiens, UniProt Q8TBX8); assay: KINOMEscan KD (Eurofins Discovery, DiscoverX); assay type: binding
T2 sequence (Q8TBX8 1-421): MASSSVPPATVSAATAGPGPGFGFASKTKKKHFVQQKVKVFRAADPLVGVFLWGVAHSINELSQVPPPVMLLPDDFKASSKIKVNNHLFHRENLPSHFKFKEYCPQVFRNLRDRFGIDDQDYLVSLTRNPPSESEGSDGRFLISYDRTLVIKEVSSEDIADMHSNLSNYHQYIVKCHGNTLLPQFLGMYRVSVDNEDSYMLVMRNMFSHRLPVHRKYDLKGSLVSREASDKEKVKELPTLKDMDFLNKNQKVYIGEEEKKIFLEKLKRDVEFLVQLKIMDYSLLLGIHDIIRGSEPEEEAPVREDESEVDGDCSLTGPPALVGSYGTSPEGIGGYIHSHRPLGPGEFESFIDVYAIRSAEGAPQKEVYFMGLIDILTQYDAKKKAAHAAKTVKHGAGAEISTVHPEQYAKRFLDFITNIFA
Experimental: (§1) a Data were generated at Eurofins Discovery using DiscoverX KINOMEscanTM technology. Streptavidin-coated magnetic beads were treated with biotinylated small molecule ligands for 30 minutes at room temperature to generate affinity resins for kinase assays. The liganded beads were blocked with excess biotin and washed with blocking buffer (SeaBlock (Pierce), 1% BSA, 0.05% Tween 20, 1 mM DTT) to remove unbound ligand and to reduce non-specific binding. Binding reactions were assembled by combining kinases, liganded affinity beads, and test compounds in 1x binding buffer (20% SeaBlock, 0.17x PBS, 0.05% Tween 20, 6 mM DTT). Test compounds were prepared as 111X stocks in 100% DMSO. Kds were determined using an 11-point 3-fold compound dilution series with three DMSO control points. All compounds for Kd measurements are distributed by acoustic transfer (non-contact dispensing) in 100% DMSO. The compounds were then diluted directly into the assays such that the final concentration of DMSO was 0.9%. All reactions performed in polypropylene 384-well plate. Each was a final volume of 0.02 ml. The assay plates were incubated at room temperature with shaking for […]
(§2) room temperature with shaking for 30 minutes. The kinase concentration in the eluates was measured by qPCR. […]

[5] = molecular target: T3, PI5P4Kβ (Homo sapiens, UniProt P78356); assay: KINOMEscan KD (Eurofins Discovery, DiscoverX); assay type: binding
T3 sequence (P78356 1-416): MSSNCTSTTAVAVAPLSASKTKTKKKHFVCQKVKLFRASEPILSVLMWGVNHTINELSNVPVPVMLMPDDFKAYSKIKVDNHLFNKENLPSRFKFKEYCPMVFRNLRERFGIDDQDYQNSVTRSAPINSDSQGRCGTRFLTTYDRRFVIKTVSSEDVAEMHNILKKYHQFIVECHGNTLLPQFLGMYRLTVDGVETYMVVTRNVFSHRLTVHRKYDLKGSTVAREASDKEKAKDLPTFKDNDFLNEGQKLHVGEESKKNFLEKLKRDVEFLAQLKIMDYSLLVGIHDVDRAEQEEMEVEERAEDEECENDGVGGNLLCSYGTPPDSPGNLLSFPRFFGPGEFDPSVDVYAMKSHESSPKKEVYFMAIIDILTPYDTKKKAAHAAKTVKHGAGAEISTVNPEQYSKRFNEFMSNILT
Experimental: as §1, §2

[6] = Plasma protein binding; assay type: in vitro ADME; conditions: Mouse plasma protein binding; read-out: mPPB (converted)
Experimental: Plasma protein binding analysis was performed by Charles River Laboratories Inc. (ADME-SOP-90). Briefly, compounds in DMSO (10 µM, 0.5% DMSO final) were added to mouse plasma and dialysed against buffer for 4 hours at 37 °C. The compound concentration in each of the plasma and buffer compartments was determined by mass spectrometry and used to calculate the percentage compound bound. […]

Compound | Papp A→B at 1 h, 10 µM [1] | efflux ratio at 1 h, 10 µM [1] | IC50 [2] | half-life at 1 µM [3] | Kd [4] | Kd [5] | fraction unbound at 4 h, 10 µM [6]
FC(F)(F)c1ccccc1-c1nc(NCc2cccs2)c2ccccc2n1 [Compound 1, NIH-12848, reference compound] | 6.4 ×10⁻⁶ cm/s | 0.9 | > 30 µM | 21 min | 4 µM | > 30 µM | < 0.01
CC(C)c1ccccc1-c1nc(NCc2ccccn2)c2c(ccn2C)n1 [Compound 40] | 122 ×10⁻⁶ cm/s | 0.4 | > 30 µM | 47 min | 0.068 µM | > 30 µM | 0.01
